Here are results for 5 molecules from patent publication US20140011711A1, “MICROARRAY CELL CHIP” (Solidus Biosciences, Inc., priority 2010, published 2014).

The subject of experiment [1] is Hep3B cell. The experiment is described as follows: Toxicity test of drugs, Hep3B cell cultured in microtiter plate (2D monolayer in 96-wells). In kind it is cell-based. The note with it: read-out: IC50 (concentration of drug when 50% of cells shows the growth inhibition), Microtiter Plate (2D Hep3B cell monolayer in 96-wells), drug cultured for a day. The text has this:
The values shown in the above Table were obtained based on the results of culturing the drug for a day, dying it immediately after the culturing, and scanning it.

The subject of experiment [2] is Hep3B cell. The experiment is described as follows: Toxicity test of drugs, Hep3B cell cultured in microarray cell chip (3D alginate culture on the chip). The class given is cell-based. The note with it: read-out: IC50 (concentration of drug when 50% of cells shows the growth inhibition), Cell chip according to Invention (3D Hep3B cell culture on the chip); 3D Hep3B cell culture in alginate on the chip; drug cultured for a day; calcein AM / ethidium homodimer-1 staining. The protocol:
The mixture of the alginate-Hep3B cell line primarily combined the upper substrate 100 formed on the spacer with the lower substrate 200 having 800 nl of culture medium in the well 210 to gelate the alginate, thereby removing the extra barium chloride. The upper substrate 100 is separated after removing the extra barium chloride and again combines with the lower substrate 200 having 800 nl of new culture medium in the well 210, thereby culturing the Hep3B cell.
After the culture ends, the Hep3B cell existing on the upper substrate 100 was dyed with the fluorescent material (calcein AM and ethidium homodimer-1).

With `CCN(CC)C(=O)/C(C#N)=C/c1cc(O)c(O)c([N+](=O)[O-])c1` [Entacapone], the IC50 with Hep3B cell [1] was 850 µM; in the experiment on Hep3B cell [2], 381 µM.
On the same counts, the results for `O=C(O)Cc1ccccc1Nc1c(Cl)cccc1Cl` [Diclofenac] are 230 µM and 375 µM.
As for `CO[C@@]12[C@H](COC(N)=O)C3=C(C(=O)C(C)=C(N)C3=O)N1C[C@@H]1N[C@@H]12` [Mitomycin C], the values for the IC50 in the experiment on Hep3B cell [1] and in the experiment with Hep3B cell [2] were 40 µM and 124 µM, respectively.
On the same counts, the results for `Cc1ccc(C(=O)c2cc(O)c(O)c([N+](=O)[O-])c2)cc1` [Tolcapone] are 50 µM and 171 µM.
As to `CCN(CC)CCCC(C)Nc1ccnc2cc(Cl)ccc12` (stereo not drawn) [Chliroquine, Chloroquine], the IC50 with Hep3B cell [1] is 50 µM.
